These results are taken from paper PMC8633584, “Patient mutations in human ATP:cob(I)alamin adenosyltransferase differentially affect its catalytic versus chaperone functions” (The Journal of Biological Chemistry, 2021).

Experiment [1] concerns the target T1, R190H ATR (Homo sapiens, UniProt Q96EY8, R190H).
T1 construct: The expression construct for recombinant human full-length and ΔN18 ATR in a pET-28b vector; His-tag (thrombin-cleavable) (N, cleaved yes); made in house; host or cells: E. coli BL21 (DE3)
T1 sequence (Q96EY8 38-250 R190H limits assumed): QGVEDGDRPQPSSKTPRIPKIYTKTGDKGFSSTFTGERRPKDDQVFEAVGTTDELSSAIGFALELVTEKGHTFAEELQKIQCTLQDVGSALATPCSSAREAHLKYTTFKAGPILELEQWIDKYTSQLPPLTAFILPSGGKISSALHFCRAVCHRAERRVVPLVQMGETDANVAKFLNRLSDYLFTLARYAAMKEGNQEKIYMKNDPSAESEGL
The experiment can be described thus: AdoCbl synthesis, steady-state kinetics. It is filed as biochemical. The method, then: (§1) AdoCbl synthesis was determined by mixing cob(II)alamin (40 μM) in buffer A at 20 °C with ∼10 equivalents of titanium citrate under strictly anaerobic conditions. The reaction was started by addition of ATP (1 mM) and ATR (1 μM trimer concentration). The concentration of cob(I)alamin formed by reduction of cob(II)alamin was estimated using ε386nm = 28.0 cm^−1 mM^−1. The rate of AdoCbl synthesis was determined by measuring the change in absorbance at 522 nm using Δ ε522nm =5.06 mM^−1 cm^−1.

Experiment [2] addresses T2, E193K ATR (Homo sapiens, UniProt Q96EY8, E193K).
T2 sequence (Q96EY8 38-250 E193K limits assumed): T1 sequence (Q96EY8 38-250 R190H limits assumed) with H153R, E156K
The experiment can be described thus: AdoCbl synthesis, steady-state kinetics. It is filed as biochemical. Further details: WT and the R190C variants of ΔN18-ATR and full-length E193K ATR were purified; His-tag (thrombin-cleavable) (N, cleaved yes); made in house; host or cells: E. coli BL21 (DE3). As to the method: as §1

For experiment [3], the target named is T3, R190C ATR (Homo sapiens, UniProt Q96EY8, R190C).
T3 sequence (Q96EY8 38-250 R190C limits assumed): T1 sequence (Q96EY8 38-250 R190H limits assumed) with H153C
Kind of experiment: AdoCbl synthesis, steady-state kinetics. Type of experiment: biochemical. Further details: The expression construct for recombinant human full-length and ΔN18 ATR in a pET-28b vector; His-tag (thrombin-cleavable) (N, cleaved yes); made in house; host or cells: E. coli BL21 (DE3). The method, then: as §1

The target in experiment [4] is T4, WT ATR (Homo sapiens, UniProt Q96EY8).
T4 sequence (Q96EY8 38-250 limits assumed): T1 sequence (Q96EY8 38-250 R190H limits assumed) with H153R
The experiment can be described thus: AdoCbl synthesis, steady-state kinetics. Type of experiment: biochemical. Further details: The expression construct for recombinant human full-length and ΔN18 ATR in a pET-28b vector; His-tag (thrombin-cleavable) (N, cleaved yes); made in house; host or cells: E. coli BL21 (DE3). As to the method: as §1

Experiment [5] concerns the target T1, R190H ATR. Kind of experiment: AdoCbl binding to ATR, UV-visible titration. As to the method:
(§2) Unless noted otherwise, all titration experiments were performed in buffer A. AdoCbl binding was monitored by adding increasing concentrations of WT or mutant ATR to 30 μM AdoCbl in buffer A at 20 °C. The spectrum was recorded 5 min after each addition. The concentration of bound AdoCbl was determined using […] = 8.0 cm^−1 mM^−1. The change in absorbance at 455 nm (corresponding to base-off AdoCbl bound to ATR) was plotted versus ATR concentration and fitted using the Dynafit software (BioKin) ([35]). Equation 1 (where A is the absorbance at 455 nm following each aliquot of ATR, ΔAmax is the maximal change in absorbance at 455 nm upon binding of AdoCbl to ATR, [E]t is the concentration of ATR active sites, and [L]t is the total AdoCbl concentration) was used to determine the dissociation constant for AdoCbl.(1) A=ΔAmax×([E]t+[L]t+Kd)+([E]t+[L]t+Kd)^2−4[L]t[E]t/2[L]t
(§3) The effect of PPPi on the KD for AdoCbl was determined by performing the above titration in the presence of 1 mM PPPi under anaerobic conditions.

Experiment [6] addresses T2, E193K ATR. Kind of experiment: AdoCbl binding to ATR, UV-visible titration. Also noted: WT and the R190C variants of ΔN18-ATR and full-length E193K ATR were purified; His-tag (thrombin-cleavable) (N, cleaved yes); made in house; host or cells: E. coli BL21 (DE3). As to the method: as §2, §3
Experiment [7] has as its target T3, R190C ATR. The experiment can be described thus: AdoCbl binding to ATR, UV-visible titration. Also noted: The expression construct for recombinant human full-length and ΔN18 ATR in a pET-28b vector; His-tag (thrombin-cleavable) (N, cleaved yes); made in house; host or cells: E. coli BL21 (DE3). As to the method: as §2, §3
Experiment [8] concerns the target T4, WT ATR. Kind of experiment: AdoCbl binding to ATR, UV-visible titration. Also noted: The expression construct for recombinant human full-length and ΔN18 ATR in a pET-28b vector; His-tag (thrombin-cleavable) (N, cleaved yes); made in house; host or cells: E. coli BL21 (DE3). As to the method: as §2, §3
Experiment [9] concerns the target T2, E193K ATR. To be noted: 1.1:1.0:1.0 E193K ATR:AdoCbl:PPPi. The method, then: (§4) The samples were prepared in an anaerobic chamber and contained: PPPi (1 mM), WT, R190C or E193K ATR (1.1 mM active sites), MgCl2 (2 mM), AdoCbl (1 mM) in 50 mM Hepes buffer pH 7.5 containing 150 mM KCl and 2 mM DTT at room temperature. The samples were transferred to 5-mm (internal diameter) NMR tubes (Wilmad-Glass), and the final volume was brought up to 0.4 ml with 90% water and 10% D2O (Cambridge Isotope Labs).
(§5) […] NMR spectra were collected at 242.5 MHz on a Bruker AVANCE NEO spectrometer equipped with a prodigy cryoprobe locked to D2O. All the NMR experiments were carried out at 25 °C using 12 μs 90° pulse widths, 8192 data points, and 4096 scans with 0.8 s recycle time. The chemical shifts were reported on proton-decoupled spectra by Gaussian line fits to the singlet resonances, relative to an external standard of 85% H3P0_4.

Experiment [10] has as its target T3, R190C ATR. As to conditions: 1.1:1.0:1.0 R190C ATR:AdoCbl:PPPi. The method, then: as §4, §5
The target of experiment [11] is T4, WT ATR. As to conditions: WT ATR 1.1 mM active sites, PPPi 1 mM, no AdoCbl. As to the method: as §4, §5

Substitutions are numbered along the chain they refer to.

Take `Nc1ncnc2c1ncn2[C@@H]1O[C@H](COP(=O)(O)OP(=O)(O)OP(=O)(O)O)[C@@H](O)[C@H]1O` [ATP]: the “lower activity (kcat) relative to WT ATR” value on R190H ATR [1] (R190H ATR vs WT) worked out at 115 fold; on R190C ATR [3] (R190C ATR vs WT) it was 16 fold. The kcat is 0.0017 ± 0.0017 s⁻¹ at R190H ATR [1] (R190H ATR, AdoCbl synthesis, cob(II)alamin 40 μM, titanium citrate, anaerobic, 20 °C); 0.18 ± 0.01 s⁻¹ on E193K ATR [2] (E193K ATR, AdoCbl synthesis, cob(II)alamin 40 μM, titanium citrate, anaerobic, 20 °C); 0.012 ± 0.0017 s⁻¹ at R190C ATR [3] (R190C ATR, AdoCbl synthesis, cob(II)alamin 40 μM, titanium citrate, anaerobic, 20 °C); 0.192 ± 0.0267 s⁻¹ at WT ATR [4] (AdoCbl synthesis, cob(II)alamin 40 μM, titanium citrate, anaerobic, 20 °C). Further, the entries for the “increase of KM for ATP relative to WT ATR” value on E193K ATR [2] (E193K ATR vs WT) and at R190C ATR [3] (R190C ATR vs WT) were 52 fold and 20 fold, respectively. For the same compound, the Km on E193K ATR [2] (E193K ATR, read-out: KM (ATP)) amounted to 235 ± 16 µM; at R190C ATR [3] (R190C ATR, read-out: KM (ATP)) it was 92 ± 31 µM; at WT ATR [4] (read-out: KM (ATP)), 4.5 ± 1.1 µM.
For the compound `C/C1=C2/[N-][C@H]([C@H](CC(N)=O)[C@@]2(C)CCC(=O)NC[C@@H](C)OP(=O)([O-])O[C@H]2[C@@H](O)[C@@H](n3cnc4cc(C)c(C)cc43)O[C@@H]2CO)[C@]2(C)N=C(/C(C)=C3N=C(/C=C4N=C1[C@@H](CCC(N)=O)C\4(C)C)[C@@H](CCC(N)=O)[C@]\3(C)CC(N)=O)[C@@H](CCC(N)=O)[C@]2(C)CC(N)=O.[CH2-][C@H]1O[C@@H](n2cnc3c(N)ncnc32)[C@H](O)[C@@H]1O.[Co+3]` [AdoCbl, 5′-deoxyadenosylcobalamin], the dissociation constant Kd on R190H ATR [5] (1 mM PPPi, anaerobic) is 13 ± 3 µM; on R190H ATR [5] (without PPPi, buffer A, 20 °C), 50 ± 5 µM; on E193K ATR [6] (1 mM PPPi, anaerobic), 100 ± 20 µM; on E193K ATR [6] (without PPPi, buffer A, 20 °C), 120 ± 30 µM; at R190C ATR [7] (1 mM PPPi, anaerobic), 4 ± 1 µM; at R190C ATR [7] (without PPPi, buffer A, 20 °C) it was 40 ± 6 µM. Also, the Kd on WT ATR [8] (1 mM PPPi, anaerobic) is 0.2 ± 0.1 µM; on WT ATR [8] (without PPPi, buffer A, 20 °C), 1 ± 0.3 µM. Further, the “lower KD(AdoCbl) in the presence of PPPi” value at R190H ATR [5] (PPPi 1 mM) worked out at 3.9 fold; at R190C ATR [7] (PPPi 1 mM) it was 10 fold. Also, the “effect of PPPi on KD for AdoCbl” value at E193K ATR [6] (PPPi 1 mM) was “no effect”. Besides, the “decrease of KD for AdoCbl by PPPi” value at WT ATR [8] (PPPi 1 mM) came out at 5 fold.
With `O=P(O)(O)OP(=O)(O)OP(=O)(O)O` [PPPi, inorganic triphosphate], the results for the “PPPi binding by 31P NMR” value at E193K ATR [9], on R190C ATR [10] and at WT ATR [11] were “did not lead to detectable PPPi binding”, “did not lead to detectable PPPi binding” and “not bound to the protein”, respectively.

One may read the kcat as the maximal rate divided by the concentration of active sites. For orientation: Km means the substrate concentration at which the rate is half of its maximum. As usually defined, the Kd is a measure of binding affinity in units of concentration.
